Key:
[1] = tested on: E. coli; experiment: FLIM-phasors of E. coli exposed to ampicillin (preliminary data, FIG. 13); assay type: cell-based
Text: The process of antibiotic susceptibility testing involves: isolation of bacteria from patient samples, immobilization of bacteria on agarose pads that contain different antibiotics supplied above the accepted minimum inhibitory concentration from the major classes commonly used in clinical settings including amoxicillin (penicillin-type), cephalexin (cephalosporin), erythromycin (macrolide), ciprofloxacin (fluoroquinolone), trimethoprim (sulfonamide), tetracycline, and gentamicin (aminoglycoside), imaging using the FLIM-AST device immediately and at 15-minute intervals for 2 hours to assess metabolic kinetics in response to antibiotics (FIG. 12).
The antibiotic susceptibility determination is performed by comparing FLIM-phasor profiles during the 2-hour incubation using software.
The FLIM microscope uses an 80 MHz ultrafast Ti:Sapphire Mai Tai laser (Spectra-physics, Santa Clara, Calif.) set at 740 nm for excitation. […] An H7422P-40 photomultiplier tube module (Hamamatsu, Bridgewater, N.J.) and A320 FastFLIM Box (ISS, Champaign, Ill.) were used to measure fluorescence lifetime. Image acquisition was controlled by SimFCS software (Laboratory for Fluorescence Dynamics, Irvine, Calif.).

[2] = tested on: surface-attached P. aeruginosa; experiment: Image-based virulence (host killing) assay with amoeba host cells and calcein-AM; assay type: cell-based, Pseudomonas aeruginosa
Protocol: P. aeruginosa cells were assayed using an image-based virulence assay as described previously (12, 50). P. aeruginosa strains were cultured in PS:DB, diluted 1:100 into 60×15 mm plastic petri dishes (Corning, Corning, N.Y.), cultured for 4 to 6 hours by shaking at 100 rpm, and harvested. Planktonic cells were assayed by transferring 10 μL of culture from the petri dish to a new petri dish, mixing with an equal volume of D. discoideum that were grown to an OD600 of 0.2-0.5, and immobilizing by placing an agar pad on top of the mixture (FIG. 11C). Agar pads were made using Bacto agar at a concentration of 1%, DB buffer, and 1 μM calcein acetoxymethyl (AM) ester (Molecular Probes, Eugene, Oreg.), and were cut into 1.5×1.5 cm squares (12, 50). Surface-attached cells were assayed by aspirating planktonic cells from the culture, washing with DB buffer to remove planktonic cells, mixing with an equal volume of D. discoideum, and immobilizing by placing an agar pad on top of the mixture (FIG. 11C) (50). The immobilized planktonic or surface-attached P. aeruginosa and D. discoideum were incubated at room temperature for 1 hour and imaged using fluorescence microscopy. The host killing index (12, 50) was computed as the average ratio of calcein-AM fluorescence to cell area in individual amoeba cells for 30 to 200 cells in each experiment.
Fluorescence microscopy to assess calcein-AM fluorescence was performed using a Nikon Eclipse Ti-E microscope (Nikon, Melville, N.Y.) containing Nikon 10× Plan Fluor Ph1 (0.3 NA) and 20×S Plan Fluor Nikon (0.45 NA) objectives, a Sola light engine (Lumencor, Beaverton, Oreg.), an LED-DA/FI/TX filter set (Semrock, Rochester, N.Y.) containing a 409/493/596 dichroic and 474/27 nm and 525/45 nm filters for excitation and emission, respectively, and a Hamamatsu Orca Flash 4.0 V2 camera (Hamamatsu, Bridgewater, N.J.). Images were acquired using Nikon NIS-Elements and analyzed using custom built software written previously (12) in Matlab (Mathworks, Natick, Mass.).
For experiments in which strains cultured in PS:DB were supplemented with individual carbon sources (FIG. 5A-D), pyruvic acid, citric acid, […], glycerol, or glucose was added to cultures at a final concentration of 0.2% at 3 hours following a 1:100 dilution from an overnight culture. Cultures were harvested after 1 additional hour of growth for measurements of fluorescence lifetime and NADH and NAD^+ concentrations. For experiments in which surface-attached strains that were cultured in PS:DB media were treated with antimycin A (FIG. 5E-F), 10 μM antimycin A dissolved in 0.1% ethanol, 0.1% ethanol, alone, or 10 μM antimycin A dissolved in 0.1% ethanol and 0.2% citric acid were added after 3 hours of growth following a 1:100 dilution from an overnight culture. Host killing was measured after an additional 1 to 3 hours of growth (total of 4 to 6 hours of growth).

[3] = tested on: E. coli; experiment: FLIM-AST (FAST) antibiotic susceptibility, g value and residual ratio (RR); assay type: cell-based; conditions: tetracycline-sensitive vs tetracycline-resistant strain, 1 hour
Text: We performed FLIM measurements using our FLIM AST (FAST) device of antibiotic-sensitive and antibiotic-resistant E. coli lab strains MG1655 and MC4100, P. aeruginosa strain PA14, and S. aureus strain RN4220 using a broad range of commonly-used antibiotics including tetracycline, ampicillin, carbenicillin, chloramphenicol, spectinomycin, gentamycin, and kanamycin and using a range of concentrations for each drug. For each antibiotic and strain combination, the minimum inhibitory concentration for each antibiotic was determined through measurements of optical densities of cultures. We treated bacterial strains using a range of concentrations starting from below-MIC to above-MIC concentrations for 1 hour.
We computed g values using the FLIM phasor method. Consistent with our predictions, we observed a significant change in g value following treatment by many antibiotics.
To determine a quantitative assessment of resistance, we computed a metric for the degree of antibiotic susceptibility for a given bacterial strain. Our experiments determined that the residual ratio (RR) number was a good indicator of antibiotic resistance:
where the g value is obtained using the phasor method to fluorescence lifetime imaging microscopy (FLIM) and t0 and t1 are the measurement times at the beginning of the measurement or at the end of the experiment, respectively. […]

[4] = tested on: P. aeruginosa; experiment: Fluorescence lifetime imaging microscopy (FLIM) phasor g-values of P. aeruginosa; assay type: cell-based, Pseudomonas aeruginosa; conditions: planktonic wild-type, 0.2% citrate as sole carbon source, 10 μM antimycin A in 0.1% ethanol vs 0.1% ethanol
Protocol: Fluorescence lifetime measurements were performed using a custom-built multiphoton microscope setup based on an Olympus FV1000 system and an Olympus IX81 microscope (Olympus, Waltham, Mass.) as described previously (68). The FLIM microscope uses an 80 MHz ultrafast Ti:Sapphire Mai Tai laser (Spectra-physics, Santa Clara, Calif.) set at 740 nm for mulitphoton excitation. The setup used a 690-nm SP dichroic-460/80 nm filter pair for separating emission and a PlanApo N Olympus oil immersion 60× (1.42 NA) objective (Olympus, Waltham, Mass.), which is capable of bacterial single-cell resolution imaging. An H7422P-40 photomultiplier tube module (Hamamatsu, Bridgewater, N.J.) and A320 FastFLIM Box (ISS, Champaign, Ill.) were used to measure fluorescence lifetime. Image acquisition was controlled by SimFCS software version 4 (64-bit) (Laboratory for Fluorescence Dynamics, Irvine, Calif.). Planktonic and surface-attached cells were isolated by modifying a protocol described previously (12, 50) (FIG. 11A).
Masks for bacterial cells were created through SimFCS using fluorescence intensity images and image intensity thresholding (FIG. 11B). Fluorescence lifetimes within the masked areas were transformed using
The microscope was calibrated before each session by setting the fluorescence lifetime obtained for 10 μM rhodamine 110 (Sigma, St. Louis, Mo.) to 4.0 ns. The laser power was set to 20% (<3 mW at back aperture of the microscope) using an acousto-optic modulator (AA Opto Electronic, Orsay, France). Sub-cellular fluorescence lifetimes (FIG. 1A) were collected using the 20× digital zoom mode at a rate of 1.7 sec/frame. All other P. aeruginosa measurements were performed using the 6× digital zoom mode using the same frame rate. For all measurements, 40 sequential frames were acquired to generate a single FLIM image.
P. aeruginosa strains were cultured overnight in PS:DB, diluted 1:100 into 35 mm glass-bottom dishes (MatTek Corporation, Ashland, Mass.) containing the same medium, and cultured for 4 to 6 hours (FIGS. 2E-F, 4A, 5A, and 8C). Alternatively, strains were cultured overnight in minimal medium A, diluted 1:100 into modified minimal media A with single carbon sources in culture tubes (FIGS. 6D-E and 7A-B, D) or glass-bottom dishes and cultured to an OD600 of 0.2 (FIG. 2E-F).
Planktonic cells were transferred to a new glass-bottom dish, immobilized using an agar pad, and imaged immediately (FIG. 11A). Agar pads were made using 1% Bacto agar (BD, Franklin Lakes, N.J.) and DB buffer (1, 2) or modified minimal medium A containing no carbon source for strains that were cultured in PS:DB or modified minimal medium, respectively, and were cut into 1.5×1.5 cm squares. Surface-attached cells were isolated by aspirating the supernatant from the dish, washing the dish to remove planktonic cells with DB buffer or modified minimal medium with no carbon source for strains cultured in PS:DB or modified minimal medium, respectively, and placing an agar pad on the dish surface, and were imaged immediately. Imaging was performed at room temperature.
For experiments involving FLIM measurements of the effects of antimycin A (FIG. 7D), P. aeruginosa were grown in culture tubes to saturation in modified minimal medium A containing 0.2% citrate, diluted 1:100 into the same medium in culture tubes, supplemented with 10 μM antimycin A (Sigma, St. Louis, Mo.) with 0.1% ethanol or with 0.1% ethanol, cultured to an OD600 of 0.2, and immediately measured for fluorescence lifetime. Fluorescence lifetimes for pyocyanin and pyoverdine (FIG. 7C) were measured using solutions of 6.2 mM pyocyanin (P0046, Sigma, St. Louis, Mo.) in DMSO and 5 mg/mL pyoverdine (P8124, Sigma, St. Louis, Mo.) in deionized water, respectively. For FIG. 6D, cells with fluorescence intensities below a value of 1.0, as reported by the SimFCS software, were excluded from the analysis. […]

CC1(C)S[C@@H]2[C@H](NC(=O)[C@H](N)c3ccccc3)C(=O)N2[C@H]1C(=O)O [ampicillin]
average values along the g-axis ([1]; E. coli exposed to ampicillin): vary with concentration | phasor profile after drug is removed ([1]; E. coli, after ampicillin is removed): recovers to smaller values of g

O=P(O)(O)O [phosphoric acid, reference compound]
host-killing activity (host killing index) ([2]; surface-attached wild-type P. aeruginosa in rich (PS:DB) medium, supplemented at 3 hours at 0.2%, assessed after 6 hours of growth, amoeba host cells): little impact on host-killing activity

CN(C)[C@@H]1C(O)=C(C(N)=O)C(=O)[C@@]2(O)C(O)=C3C(=O)c4c(O)cccc4[C@@](C)(O)[C@H]3C[C@@H]12 [tetracycline]
concentration at which the increase in RR value begins [3]: 50 µg/mL

antimycin A [reference compound]
shift in fluorescence lifetime g-value [4]: shift towards higher g-value | virulence induced earlier than untreated cells ([2]; surface-attached P. aeruginosa, 10 μM antimycin A in 0.1% ethanol added at 3 hours, host killing at 4.5 to 6 hours): 30 min
